In article PMC3779154, “Identification of Therapeutic Candidates for Chronic Lymphocytic Leukemia from a Library of Approved Drugs” (PLoS ONE, 2013):
Counter-ions that a name gives are not always drawn. Like-named read-outs stand apart in the source and are kept apart here. Starred links: 1 amine or outer side, 2 acyl side, 3 side chain; linkers in the order of their positions; H or OH if unused. Positions of bridges follow the written chain, without caps; N, C: chain ends. Non-standard residues stand in square brackets, D forms with d. Residues, ends and D or L forms follow the SMILES beside them. Chains are numbered I, II in the order given. Actinocin(9to1) = Cc1c2oc3c(C)ccc(C(=O)[*:1])c3nc-2c(C(=O)[*:2])c(N)c1=O; NMeV = CN[C@H](C(=O)O)C(C)C; Sar = CNCC(=O)O

What was measured:
[1] = system: ME-180 human cervical carcinoma cell line; assay: Cell viability assay, ME-180 cells (NPC library profiling)
Description: Based on the definition of actives, inactives and inconclusive mentioned above, compounds were further clustered hierarchically using Spotfire DecisionSite 8.2 (Spotfire Inc., Cambridge, MA) based on their activity outcomes from the primary screen across a wide variety of cell viability assays against different cell lines or primary patient cells. Each compound was converted into an integer which represents its activity outcome in each cell viability assay. […] Integer 2 represents compounds in “inconclusive” category which is corresponding to light red in the heat map. […] Compounds not tested in the assay were labeled as 4 and shown as grey in the heat map.

[2] = system: fresh CLL patient lymphocytes; assay: cells; details: Homo sapiens
Experimental: (§1) Cell viability was measured using a luciferase-based ATP quantitation assay (CellTiter-Glo^TM, Promega). The intracellular ATP content indicates the number of viable (i.e. metabolically competent) cells after compound treatment. […] After that, a total of 23 nL of compounds at 8 selected concentrations from the NPC library or positive control (10 mM stock of doxorubicin hydrochloride) in DMSO was transferred to each well of the assay plate using a pintool (Kalypsys, San Diego, CA), and the plates were further incubated at 37 °C with 5% CO2 for 24 hours to allow the reaction. Then 4µL of CellTilter-Glo luminescent substrate mix was added to each well. The plate was incubated at room temperature for 15 minutes. The plates were measured on a ViewLux plate reader (PerkinElmer) with clear filter. […] The test volume of 5,000 cells/4 μL/well was selected as the final assay condition in cell density tests based on the assay performance statistics: signal/background ratio, coefficient of variation and Z’-factor (data not shown).
(§2) Fresh primary cells were also obtained from two unaffected normal donors and seven CLL patients whose blood samples were collected within hours of apheresis and which had not been included in our previous experiments.

[3] = system: primary CLL cells; assay: qHTS luminescent ATP cell viability assay (CellTiter-Glo), primary screen, frozen CLL patient cells; format: cell-based, human; details: for Emax / IC50: Homo sapiens, CLL cell; for Emax: CLL cells, 24 h, normalized to doxorubicin control, read-out: efficacy (maximal response); for cytotoxicity across CLL cell samples: six CLL patient samples, primary screen
Description: Lymphocytes from 13 CLL treatment naïve patients (Table 1 ) and 5 normal donors were obtained by lymphapheresis with written informed consent and isolated by gradient centrifugation using Lymphocyte Separation Medium (MP Biomedicals, Solon, OH) and used fresh or cryopreserved in liquid nitrogen in 10% dimethyl sulfoxide, 90% FCS. CLL patients were consented on the institutional review board (IRB) approved at the National Heart, Lung, and Blood Institute (NHLBI, Office of Clinical Affairs, Bldg 10, CRC. Room 6-5140, Bethesda, Maryland 20892-1608) with protocol 04-H-0012 and samples from normal donors were collected by the Department of Transfusion Medicine, National Institutes of Health (NIH). This study was approved by the IRB mentioned above. Fresh cells were temporally placed on ice and plated for screening within 3 hrs of apheresis. Frozen cells were thawed the night before the assay and incubated in T175 flask in AIM V medium to recover overnight. Analysis of IGHV gene status was performed as described. CLL samples were cultured in AIM V serum free medium (Gibco-Invitrogen, Long Island, NY).
Compound formatting and qHTS were performed as described previously. The final concentration of the NPC compounds in the 4 µL assay volume ranged from 57 µM to 0.7 nM in 1:5 dilution steps. The positive control plate format was as follows: columns 1 and 3, DMSO only; column 2, doxorubicin, a known cytotoxic chemotherapy agent in a 1:2 dilution series from 10 µM to 5 nM in DMSO; and column 4, doxorubicin at 10 µM in DMSO.
To determine compound activity in the qHTS assay, the concentration-response data for each sample was plotted and modeled by a four parameter logistic fit yielding IC50 and efficacy (maximal response) values as previously described. Data normalization and curve fitting were performed using in-house informatics tools. Briefly, raw plate reads for each titration point were first normalized relative to the positive control compound (100%) and DMSO-only wells (basal, 0%), and then corrected by applying a pattern correction algorithm using compound-free control plates (i.e., DMSO-only plates) at the beginning and end of the NPC compound plate stack. […] In brief, Class 1.1 and 1.2 were the highest-confidence complete CRCs containing upper and lower asymptotes with efficacies ≥ 80% and < 80%, respectively. Class 2.1 and 2.2 were incomplete CRCs having only one asymptote with efficacy ≥ 80% and < 80%, respectively.
Compounds from the primary qHTS screen were further classified into three categories according to the quality of curve fit and efficacy.

[4] = system: fresh CLL patient lymphocytes
Experimental: as §1, §2

[5] = system: lymphocytes from normal donors; assay: cells; details: Homo sapiens, Lymphocyte, read-out: IC50 normal
Experimental: (§3) Cell viability was measured using a luciferase-based ATP quantitation assay (CellTiter-Glo^TM, Promega). The intracellular ATP content indicates the number of viable (i.e. metabolically competent) cells after compound treatment. Four µL of CLL cells resuspended in AIM medium at 1,330,000 cells/ml, were dispensed into each well of white, solid bottom, 1536-well tissue culture–treated plates using a Multidrop-Combi dispenser and incubated overnight. After that, a total of 23 nL of compounds at 8 selected concentrations from the NPC library or positive control (10 mM stock of doxorubicin hydrochloride) in DMSO was transferred to each well of the assay plate using a pintool (Kalypsys, San Diego, CA), and the plates were further incubated at 37 °C with 5% CO2 for 24 hours to allow the reaction. Then 4µL of CellTilter-Glo luminescent substrate mix was added to each well. The plate was incubated at room temperature for 15 minutes. The plates were measured on a ViewLux plate reader (PerkinElmer) with clear filter.
(§4) These compounds were then re-tested in the cell viability assay using 12 point titrations with concentration ranging from 57 µM to 0.3 nM with 1:3 dilution.
as §2

[6] = system: lymphocytes from normal donors; details: for difference in efficacy between CLL and unaffected donor samples: at 19 µM and 57 µM, the two highest testing concentrations; for potency shift between CLL and normal donor samples: fresh cells, normal IC50 vs CLL IC50; for IC50: read-out: IC50 normal, average of 2 normal donors, fresh, Figure 5
Experimental: as §3, §4, §2

[7] = system: caspase-3/7; assay: Caspase-Glo 3/7 activation assay in CLL samples; format: cell-based, human; details: read-out: EC50 caspase-3/7 activity
Experimental: The effect of selected compounds on caspase activity was measured using a homogeneous luminescent method (Caspase-Glo® 3/7, 8 and 9 kits, Promega, Madison, WI). Briefly in this assay, caspase induced by cells cleaves a pro-luciferin substrate where a tetrapeptide caspase substrate - DEVD (asp-glu-val-asp) is cleaved to free aminoluciferin, which can be used as a substrate by luciferase yielding a bioluminescent signal. The luminescent signal is proportional to the amount of caspase activity present in the cells. Cells were dispensed in culture medium at 5,000/cells/5uL/well in 1536-well white/solid-bottom assay plates. The cells were incubated for overnight at 37°C. The compounds (23nL/well) were added via the pin tool. The treated cells were further incubated for 24 h at 37°C, followed by the addition of the Caspase-Glo 3/7, 8 or 9 reagents at 5uL/well. After a 30 min incubation at room temperature, the luminescence intensity of the assay plates was measured using a ViewLux Plate Reader. The caspase activity was normalized to DMSO control.

[8] = confirmation assay, fresh CLL samples, 24 h, Table S1
[9] = read-out: IC50 CLL, average of cells from 7 CLL patients, fresh, Figure 5
[10] = Lymphocyte, 24 h, confirmation assay, fresh CLL samples, Table S1
[11] = Lymphocyte, read-out: IC50 CLL, average of cells from 7 CLL patients, fresh, Figure 5

ivermectin was tested, and the “cytotoxicity in ME-180 cells” value [1] was “prominent cytotoxicity”.

`CO[C@@H]1[C@H](O)C[C@@H](O[C@@H]2C[C@H](Oc3cc4cc5c(c(O)c4c(O)c3C)C(=O)[C@@H](O[C@H]3C[C@@H](O[C@H]4C[C@@H](O[C@H]6C[C@](C)(O)[C@@H](OC(C)=O)[C@H](C)O6)[C@H](O)[C@@H](C)O4)[C@H](O)[C@@H](C)O3)[C@H]([C@H](OC)C(=O)[C@@H](O)[C@@H](C)O)C5)O[C@H](C)[C@@H]2OC(C)=O)O[C@@H]1C` [chromomycin A3] showed an IC50 ([2]; Lymphocyte, 24 h) of under 1000 nM.

`Cc1cc(-c2ccc(/N=N/c3c(S(=O)(=O)O)cc4cc(S(=O)(=O)O)cc(N)c4c3O)c(C)c2)ccc1/N=N/c1c(S(=O)(=O)O)cc2cc(S(=O)(=O)O)cc(N)c2c1O` [trypan blue] was tested, and the “cytotoxicity in ME-180 cells” value [1] was “prominent cytotoxicity”.

Molecule `CC[C@@]1(O)C[C@H](O[C@H]2C[C@H](N(C)C)[C@H](O[C@H]3C[C@H](O)[C@H](O[C@H]4CCC(=O)[C@H](C)O4)[C@H](C)O3)[C@H](C)O2)c2c(cc3c(c2O)C(=O)c2c(O)cccc2C3=O)[C@H]1C(=O)OC` [aclarubicin hydrochloride] has an IC50 ([2]; Lymphocyte, 24 h) of under 1000 nM.

With `COc1cc([C@@H]2c3cc4c(cc3[C@@H](O[C@@H]3O[C@@H]5CO[C@@H](c6cccs6)O[C@H]5[C@H](O)[C@H]3O)[C@H]3COC(=O)[C@H]23)OCO4)cc(OC)c1O` [teniposide] the Emax [3] was under 80%.

With `CC[C@]1(O)C[C@H]2CN(CCc3c([nH]c4ccccc34)[C@@](C(=O)OC)(c3cc4c(cc3OC)N(C=O)[C@H]3[C@@](O)(C(=O)OC)[C@H](OC(C)=O)[C@]5(CC)C=CCN6CC[C@]43[C@@H]65)C2)C1` [vincristine] the IC50 [4, 8] was under 1000 nM.

`CN(C)c1ccc(C(=C2C=CC(=[N+](C)C)C=C2)c2c(O)c(S(=O)(=O)[O-])cc3cc(S(=O)(=O)[O-])ccc23)cc1.[Na+]` [lissamine green B] was tested, and the “cytotoxicity in ME-180 cells” value [1] was “prominent cytotoxicity”.

Work on `Cn1c(CCCC(=O)O)nc2cc(N(CCCl)CCCl)ccc21` [bendamustine] yielded an IC50 ([2]; Lymphocyte, 24 h) of 12000 to 30000 nM.

In the case of `COc1cc([C@@H]2c3cc4c(cc3[C@H](O)[C@H]3COC(=O)[C@H]23)OCO4)cc(OC)c1OC` [podofilox], the IC50 [5] is reported as 150 nM, the “cytotoxicity on lymphocytes derived from unaffected donors” value [6] is reported as “almost no cytotoxicity” and the “difference in efficacy between CLL and unaffected donor samples” value [6] is reported as “over 40%”. For the same molecule, the “decreased efficacy against B-cells from normal donors” value ([6]; at the testing concentration of 1.7 µM) was “approximately 40%”, the “potency shift between CLL and normal donor samples” value [6] was “about 3 fold” and the EC50 ([7]; Homo sapiens, 24 h) was under 100 nM. The “efficacy (cytotoxicity)” value ([4]; human) was over 60%, the IC50 [4, 9] was under 1000 nM and the IC50 ([4]; read-out: IC50 CLL, average of cells from 7 CLL patients, fresh, Figure 5, listed as Podofilox) was 60 nM.

In the case of `COC(=O)C[C@](O)(CCCC(C)(C)O)C(=O)O[C@@H]1C(OC)=C[C@]23CCCN2CCc2cc4c(cc2[C@H]13)OCO4` [omacetaxine mepesuccinate], the IC50 [2, 10] is reported as under 1000 nM.

For `CC(=O)[C@]1(O)Cc2c(O)c3c(c(O)c2[C@@H](O[C@H]2C[C@H](N)[C@H](O)[C@H](C)O2)C1)C(=O)c1ccccc1C3=O` [idarubicin], the IC50 ([3]; CLL patient #4705) was 3200 nM, the IC50 ([3]; CLL patient #4789) was 100 nM and the IC50 ([3]; CLL patient #4808) was 100 nM. For the same molecule, the potency shift ([3]; patient #4705 compared to #4789 and #4808) was 32 fold and the IC50 [2, 10] was under 1000 nM.

In the case of `C[C@H]1CC[C@]2(NC1)O[C@H]1C[C@H]3[C@@H]4CC[C@H]5C[C@@H](O[C@@H]6O[C@H](CO)[C@H](O[C@@H]7O[C@H](CO)[C@@H](O)[C@H](O[C@@H]8OC[C@@H](O)[C@H](O)[C@H]8O)[C@H]7O[C@@H]7O[C@H](CO)[C@@H](O)[C@H](O)[C@H]7O)[C@H](O)[C@H]6O)CC[C@]5(C)[C@H]4CC[C@]3(C)[C@H]1[C@@H]2C` [tomatine], the “cytotoxicity in ME-180 cells” value [1] is reported as “prominent cytotoxicity”.

Work on `Nc1nc(F)nc2c1ncn2[C@@H]1O[C@H](CO)[C@@H](O)[C@@H]1O` [fludarabine] yielded an IC50 [6] of 9400 nM, an IC50 [4, 9] of 12200 nM and an IC50 ([4]; read-out: potency, comparable cell killing against CLL cells and normal lymphocytes) of 12000 nM.

For `Cc1c2oc3c(C)ccc(C(=O)N[C@@H]4C(=O)N[C@H](C(C)C)C(=O)N5CCC[C@H]5C(=O)N(C)CC(=O)N(C)[C@@H](C(C)C)C(=O)O[C@@H]4C)c3nc-2c(C(=O)N[C@@H]2C(=O)N[C@H](C(C)C)C(=O)N3CCC[C@H]3C(=O)N(C)CC(=O)N(C)[C@@H](C(C)C)C(=O)O[C@@H]2C)c(N)c1=O` [actinomycin D] (I: T[dV]P[Sar][NMeV] / II: T[dV]P[Sar][NMeV]; ester I:1-I:C, II:1-II:C; linker I:N-II:N via Actinocin(9to1)), the IC50 ([2]; Lymphocyte, 24 h) was under 1000 nM.

For `O=C1c2c(O)ccc(O)c2C(=O)c2c(NCCNCCO)ccc(NCCNCCO)c21` [mitoxantrone], the IC50 [5] was 7000 nM, the IC50 ([2]; CLL cell, read-out: potency, comparable cell killing against CLL cells and normal lymphocytes) was 6000 nM and the IC50 [2, 10] was about 5400 nM. It also gave an IC50 [2, 11] of 7200 nM.

In the case of `COc1cc2c(cc1O)CCN[C@]21CS[C@@H]2c3c(OC(C)=O)c(C)c4c(c3[C@H](COC1=O)N1[C@@H]2[C@H]2c3c(cc(C)c(OC)c3O)C[C@@H]([C@@H]1O)N2C)OCO4` [trabectedin], the “cytotoxicity across CLL cell samples” value [3] is reported as “cytotoxicity in all CLL cell samples at similar concentrations” and the IC50 [2, 10] is reported as under 1000 nM.

`COc1cccc2c1C(=O)c1c(O)c3c(c(O)c1C2=O)C[C@@](O)(C(=O)CO)C[C@@H]3O[C@H]1C[C@H](N)[C@H](O)[C@H](C)O1` [doxorubicin] was tested, and the IC50 [5] was 14400 nM, the “potency shift between CLL and normal donor samples” value [6] was 3 fold and the IC50 [2, 11] was 4500 nM.

In the case of `CC(=O)[O][Hg][c]1ccccc1` [phenylmercuric acetate], the “cytotoxicity in ME-180 cells” value [1] is reported as “prominent cytotoxicity”.

With `C[n+]1cc2c3c(ccc2c2ccc4cc5c(cc4c21)OCO5)OCO3` [sanguinarine] the “cytotoxicity in ME-180 cells” value [1] was “prominent cytotoxicity”.

For `CC(C)C[C@H](NC(=O)[C@H](Cc1ccccc1)NC(=O)c1cnccn1)B(O)O` [bortezomib], the “cytotoxicity across CLL cell samples” value [3] was “cytotoxicity in all CLL cell samples at similar concentrations” and the IC50 [2, 10] was under 1000 nM.

With plicamycin the “difference in efficacy between CLL and unaffected donor samples” value [6] was “over 40%”, the “potency shift between CLL and normal donor samples” value [6] was “about 3 fold” and the IC50 [6] was 840 nM. For the same molecule, the “decreased efficacy to normal B cells” value ([6]; versus CLL cells) was “over 40%”, the EC50 ([7]; CLL samples, 24 hours) was 430 nM and the IC50 [4, 8] was under 1000 nM. For the same molecule, the IC50 [4, 9] was 750 nM.

For `CC[C@]1(O)C[C@@H]2CN(CCc3c([nH]c4ccccc34)[C@@](C(=O)OC)(c3cc4c(cc3OC)N(C)[C@H]3[C@@](O)(C(=O)OC)[C@H](OC(C)=O)[C@]5(CC)C=CCN6CC[C@]43[C@@H]65)C2)C1` [vinblastine], the “fold more potent in CLL sample #4808 than #4399” value ([3]; CLL sample #4808 vs #4399) was over 100 fold and the Emax [3] was over 80%.
